One test concerns the target Sonic hedgehog protein (Mus musculus, UniProt Q62226). The test can be described thus: Inhibition of SHH pathway in mouse Shh Light2 cells after 40 hrs by Gli-dependent luciferase reporter gene assay. The test is classed as functional, cell-based, Shh Light II.
For test [1], the target named is Sonic hedgehog protein (Mus musculus) (UniProt Q62226). The test can be described thus: Inhibition of N-terminal SHH activated pathway in mouse C3H10T1/2 cells assessed as SAG-induced cell differentiation at 1 uM by alkaline phosphatase assay. The note with it: C3H 10T1/2. The test is classed as cell-based.
Test [2] has the same target. The test can be described thus: Inhibition of N-terminal SHH activated pathway in mouse C3H10T1/2 cells assessed as SAG-induced cell differentiation at 10 uM by alkaline phosphatase assay. It counts as cell-based. The note with it: C3H 10T1/2.
Test [3] has the same target. Kind of test: Inhibition of SHH pathway in mouse Shh Light2 cells at 0.3 uM after 40 hrs by Gli-dependent luciferase reporter gene assay. The test is classed as functional, cell-based. As to conditions: Shh Light II.
Test [4] shares this target. Kind of test: Inhibition of SHH pathway in mouse Shh Light2 cells at 3 uM after 40 hrs by Gli-dependent luciferase reporter gene assay. The test is classed as functional, cell-based. As to conditions: Shh Light II. In general terms: Reporter assays use an easily measured gene product as a stand-in for the process of interest.
For test [5] the target is unchanged. The test can be described thus: Inhibition of SHH pathway in mouse Shh Light2 cells at 10 uM after 40 hrs by Gli-dependent luciferase reporter gene assay. It counts as functional, cell-based. As to conditions: Shh Light II.

Each structure is given as a SMILES string.

The term IC50 denotes the concentration that inhibits the measured activity by half. A lower IC50 goes with inhibition by little substance. What is called inhibition is the relative decrease from the control value, in per cent.

Sonic hedgehog protein, sequence (Q62226 25-198 limits assumed): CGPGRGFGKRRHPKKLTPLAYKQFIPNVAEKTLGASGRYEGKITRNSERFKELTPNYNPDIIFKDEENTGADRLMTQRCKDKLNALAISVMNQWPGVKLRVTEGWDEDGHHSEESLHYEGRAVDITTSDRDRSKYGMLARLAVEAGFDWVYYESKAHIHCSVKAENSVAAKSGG

`COc1cccc(CN(C(=O)CC(C)(C)C)[C@H]2C[C@@H](C(=O)N3CCNCC3)N(Cc3ccc4c(c3)OCO4)C2)c1` came in with an IC50 at Sonic hedgehog protein of 100 nM. The inhibition in test [1] came to 78%; in test [2], 99%; in test [3], 89%; in test [4], 97%; in test [5], 92%.
In the case of `CC1=C2C[C@H]3[C@@H](CC=C4C[C@@H](O)CC[C@@]43C)[C@@H]2CC[C@]12O[C@@H]1C[C@H](C)CN[C@H]1[C@H]2C` [CYCLOPAMINE], on Sonic hedgehog protein, the IC50 worked out at 300 nM. Further, the inhibition was found to be 71% in test [1]; 105% in test [2]; 58% in test [3]; 96% in test [4]; 98% in test [5].
As to `C[C@H]([C@@H]1CCCCN1)[C@H]1CC[C@H]2[C@@H]3CC=C4C[C@@H](O)CC[C@]4(C)[C@H]3CC[C@]12C` [DESMETHYLVERAMILINE], the IC50 against Sonic hedgehog protein worked out at 1100 nM. Moreover, the inhibition amounted to 13% in test [1]; 85% in test [2]; 5% in test [3]; 47% in test [4]; 87% in test [5].

For the origin of these results see ChEMBL document CHEMBL1799946, “Synthesis and biological evaluation of desmethylveramiline, a micromolar Hedgehog inhibitor” (Bioorg Med Chem Lett, 2011).
